According to patent US11459323B2, “Monocyclic β-lactam compound for treating bacterial infection” (MEDSHINE DISCOVERY INC., priority 2018, dated 2022):
≈ marks a conversion by molar mass, not a printed value.

Key:
Assay in all cases: MIC on clinically isolated bacteria
Format in all cases: cell-based
[1] = tested on: Acinetobacter baumannii C270; details: Acinetobacter baumannii C270; read-out: Minimum Inhibitory Concentration (MIC)
Text: (§1) Twenty-five strains of clinically isolated Acinetobacter baumannii and twenty-seven strains of Pseudomonas aeruginosa were respectively selected and used to determine the minimum inhibitory concentration (MIC) of the compounds by micro-liquid dilution method according to the Institute of Clinical and Laboratory Standard (CLSI) requirements.

[2] = tested on: Acinetobacter baumannii C333; details: Acinetobacter baumannii C333; read-out: Minimum Inhibitory Concentration (MIC)
Text: as §1

[3] = tested on: Acinetobacter baumannii C395; details: Acinetobacter baumannii C395; read-out: Minimum Inhibitory Concentration (MIC)
Text: as §1

[4] = tested on: Pseudomonas aeruginosa M4; details: read-out: MIC
Text: as §1

[5] = tested on: Pseudomonas aeruginosa W27; details: read-out: MIC
Text: as §1

[6] = tested on: Acinetobacter baumannii C181; details: Acinetobacter baumannii C181; read-out: Minimum Inhibitory Concentration (MIC)
Text: as §1

[7] = tested on: Acinetobacter baumannii C361; details: Acinetobacter baumannii C361; read-out: Minimum Inhibitory Concentration (MIC)
Text: as §1

[8] = tested on: Pseudomonas aeruginosa W28; details: read-out: MIC
Text: as §1

[9] = tested on: Pseudomonas aeruginosa C761; details: read-out: MIC
Text: as §1

[10] = tested on: Pseudomonas aeruginosa M1; details: read-out: MIC
Text: as §1

[11] = tested on: Pseudomonas aeruginosa W32; details: read-out: MIC
Text: as §1

[12] = tested on: Pseudomonas aeruginosa W13; details: read-out: MIC
Text: as §1

[13] = tested on: Pseudomonas aeruginosa W19; details: read-out: MIC
Text: as §1

[14] = tested on: Acinetobacter baumannii C319; details: Acinetobacter baumannii C319; read-out: Minimum Inhibitory Concentration (MIC)
Text: as §1

[15] = tested on: Acinetobacter baumannii C281; details: Acinetobacter baumannii C281; read-out: Minimum Inhibitory Concentration (MIC)
Text: as §1

[16] = tested on: Pseudomonas aeruginosa C763; details: read-out: MIC
Text: as §1

[17] = tested on: Pseudomonas aeruginosa W47; details: read-out: MIC
Text: as §1

[18] = tested on: Acinetobacter baumannii C332; details: Acinetobacter baumannii C332; read-out: Minimum Inhibitory Concentration (MIC)
Text: as §1

[19] = tested on: Acinetobacter baumannii C394; details: Acinetobacter baumannii C394; read-out: Minimum Inhibitory Concentration (MIC)
Text: as §1

Aeruginosa ATCC27853 = details: Pseudomonas aeruginosa; Aeruginosa ATCC27853; read-out: MIC
Text: as §1

[20] = tested on: Pseudomonas aeruginosa W46; details: read-out: MIC
Text: as §1

[21] = tested on: Acinetobacter baumannii C330; details: Acinetobacter baumannii C330; read-out: Minimum Inhibitory Concentration (MIC)
Text: as §1

[22] = tested on: Pseudomonas aeruginosa C754; details: read-out: MIC
Text: as §1

[23] = tested on: Pseudomonas aeruginosa W24; details: read-out: MIC
Text: as §1

[24] = tested on: Acinetobacter baumannii C328; details: Acinetobacter baumannii C328; read-out: Minimum Inhibitory Concentration (MIC)
Text: as §1

[25] = tested on: Acinetobacter baumannii C312; details: Acinetobacter baumannii C312; read-out: Minimum Inhibitory Concentration (MIC)
Text: as §1

[26] = tested on: Pseudomonas aeruginosa W42; details: read-out: MIC
Text: as §1

[27] = tested on: Acinetobacter baumannii C402; details: Acinetobacter baumannii C402; read-out: Minimum Inhibitory Concentration (MIC)
Text: as §1

[28] = tested on: Pseudomonas aeruginosa W1; details: read-out: MIC
Text: as §1

[29] = tested on: Acinetobacter baumannii C390; details: Acinetobacter baumannii C390; read-out: Minimum Inhibitory Concentration (MIC)
Text: as §1

[30] = tested on: Pseudomonas aeruginosa W35; details: read-out: MIC
Text: as §1

[31] = tested on: Acinetobacter baumannii C315; details: Acinetobacter baumannii C315; read-out: Minimum Inhibitory Concentration (MIC)
Text: as §1

[32] = tested on: Acinetobacter baumannii C313; details: Acinetobacter baumannii C313; read-out: Minimum Inhibitory Concentration (MIC)
Text: as §1

[33] = tested on: Pseudomonas aeruginosa C745; details: read-out: MIC
Text: as §1

[34] = tested on: Pseudomonas aeruginosa W9; details: read-out: MIC
Text: as §1

[35] = tested on: Pseudomonas aeruginosa C762; details: read-out: MIC
Text: as §1

[36] = tested on: Pseudomonas aeruginosa W20; details: read-out: MIC
Text: as §1

[37] = tested on: Pseudomonas aeruginosa W4; details: read-out: MIC
Text: as §1

[38] = tested on: Acinetobacter baumannii C357; details: Acinetobacter baumannii C357; read-out: Minimum Inhibitory Concentration (MIC)
Text: as §1

[39] = tested on: Pseudomonas aeruginosa W23; details: read-out: MIC
Text: as §1

[40] = tested on: Pseudomonas aeruginosa W6; details: read-out: MIC
Text: as §1

Molecule `CC1(C)[C@H](NC(=O)/C(=N\O[C@@H](COc2ccc3c(c2)CN(C(=N)N[C@@H]2CCCNC2)C3)C(=O)O)c2csc(N)n2)C(=O)N1OS(=O)(=O)O` [Compound 41] has an MIC [1] of 2 µg/mL (≈ 2.82 µM), an MIC [2] of 2 µg/mL (≈ 2.82 µM) and an MIC [3] of 2 µg/mL (≈ 2.82 µM). For the same molecule, the MIC [4] was 0.5 µg/mL (≈ 0.704 µM), the MIC [5] was 4 µg/mL (≈ 5.64 µM) and the MIC [6] was 4 µg/mL (≈ 5.64 µM). It also gave an MIC [7] of 1 µg/mL (≈ 1.41 µM), an MIC [8] of 4 µg/mL (≈ 5.64 µM) and an MIC [9] of 1 µg/mL (≈ 1.41 µM). It also gave an MIC [10] of 1 µg/mL (≈ 1.41 µM), an MIC [11] of 4 µg/mL (≈ 5.64 µM) and an MIC [12] of 0.5 µg/mL (≈ 0.704 µM). For the same molecule, the MIC [13] was 1 µg/mL (≈ 1.41 µM), the MIC [14] was 2 µg/mL (≈ 2.82 µM) and the MIC [15] was 2 µg/mL (≈ 2.82 µM). It also gave an MIC [16] of 4 µg/mL (≈ 5.64 µM), an MIC [17] of 2 µg/mL (≈ 2.82 µM) and an MIC [18] of 2 µg/mL (≈ 2.82 µM). The MIC [19] was 2 µg/mL (≈ 2.82 µM), the MIC (Aeruginosa ATCC27853) was 0.5 µg/mL (≈ 0.704 µM) and the MIC [20] was 2 µg/mL (≈ 2.82 µM). The MIC [21] was 2 µg/mL (≈ 2.82 µM), the MIC [22] was 0.5 µg/mL (≈ 0.704 µM) and the MIC [23] was 2 µg/mL (≈ 2.82 µM). It also gave an MIC [24] of 2 µg/mL (≈ 2.82 µM), an MIC [25] of 2 µg/mL (≈ 2.82 µM) and an MIC [26] of 0.5 µg/mL (≈ 0.704 µM). It also gave an MIC [27] of 2 µg/mL (≈ 2.82 µM), an MIC [28] of 2 µg/mL (≈ 2.82 µM) and an MIC [29] of 2 µg/mL (≈ 2.82 µM). For the same molecule, the MIC [30] was 0.5 µg/mL (≈ 0.704 µM), the MIC [31] was 2 µg/mL (≈ 2.82 µM) and the MIC [32] was 2 µg/mL (≈ 2.82 µM). For the same molecule, the MIC [33] was 4 µg/mL (≈ 5.64 µM), the MIC [34] was 4 µg/mL (≈ 5.64 µM) and the MIC [35] was 8 µg/mL (≈ 11.3 µM). The MIC [36] was 4 µg/mL (≈ 5.64 µM), the MIC [37] was 0.5 µg/mL (≈ 0.704 µM) and the MIC [38] was 2 µg/mL (≈ 2.82 µM). For the same molecule, the MIC [39] was 0.5 µg/mL (≈ 0.704 µM) and the MIC [40] was 4 µg/mL (≈ 5.64 µM).

`CC1(C)[C@H](NC(=O)/C(=N\O[C@@H](COc2ccc3c(c2)CN(C(=N)NOCCN)C3)C(=O)O)c2csc(N)n2)C(=O)N1OS(=O)(=O)O` [Compound 43] showed an MIC [1] of 8 µg/mL (≈ 11.7 µM), an MIC [2] of 8 µg/mL (≈ 11.7 µM) and an MIC [3] of 8 µg/mL (≈ 11.7 µM). For the same molecule, the MIC [4] was 0.25 µg/mL (≈ 0.365 µM), the MIC [5] was 8 µg/mL (≈ 11.7 µM) and the MIC [6] was greater than 16 µg/mL. For the same molecule, the MIC [7] was 8 µg/mL (≈ 11.7 µM), the MIC [8] was 8 µg/mL (≈ 11.7 µM) and the MIC [9] was 2 µg/mL (≈ 2.92 µM). It also gave an MIC [10] of 1 µg/mL (≈ 1.46 µM), an MIC [11] of 8 µg/mL (≈ 11.7 µM) and an MIC [12] of 1 µg/mL (≈ 1.46 µM). It also gave an MIC [13] of 4 µg/mL (≈ 5.83 µM), an MIC [14] of 8 µg/mL (≈ 11.7 µM) and an MIC [15] of 8 µg/mL (≈ 11.7 µM). It also gave an MIC [16] of 8 µg/mL (≈ 11.7 µM), an MIC [17] of 8 µg/mL (≈ 11.7 µM) and an MIC [18] of 8 µg/mL (≈ 11.7 µM). It also gave an MIC [19] of 8 µg/mL (≈ 11.7 µM), an MIC (Aeruginosa ATCC27853) of 1 µg/mL (≈ 1.46 µM) and an MIC [20] of 4 µg/mL (≈ 5.83 µM). The MIC [21] was 8 µg/mL (≈ 11.7 µM), the MIC [22] was 1 µg/mL (≈ 1.46 µM) and the MIC [23] was 8 µg/mL (≈ 11.7 µM). The MIC [24] was 8 µg/mL (≈ 11.7 µM), the MIC [25] was 8 µg/mL (≈ 11.7 µM) and the MIC [26] was 1 µg/mL (≈ 1.46 µM). It also gave an MIC [27] of 8 µg/mL (≈ 11.7 µM), an MIC [28] of 8 µg/mL (≈ 11.7 µM) and an MIC [29] of 8 µg/mL (≈ 11.7 µM). For the same molecule, the MIC [30] was 1 µg/mL (≈ 1.46 µM), the MIC [31] was 8 µg/mL (≈ 11.7 µM) and the MIC [32] was 8 µg/mL (≈ 11.7 µM). It also gave an MIC [33] of 8 µg/mL (≈ 11.7 µM), an MIC [34] of 8 µg/mL (≈ 11.7 µM) and an MIC [35] of 16 µg/mL (≈ 23.3 µM). The MIC [36] was 8 µg/mL (≈ 11.7 µM), the MIC [37] was 0.5 µg/mL (≈ 0.729 µM) and the MIC [38] was 8 µg/mL (≈ 11.7 µM). For the same molecule, the MIC [39] was 1 µg/mL (≈ 1.46 µM) and the MIC [40] was 8 µg/mL (≈ 11.7 µM).

`C[C@@H](O)[C@H]1C(=O)N2C(C(=O)O)=C(S[C@@H]3CN[C@H](C(=O)N(C)C)C3)[C@H](C)[C@H]12` [Meropenem, reference compound] showed an MIC [1] of 64 µg/mL (≈ 167 µM), an MIC [2] of 64 µg/mL (≈ 167 µM) and an MIC [4] of 0.5 µg/mL (≈ 1.3 µM). For the same molecule, the MIC [5] was 32 µg/mL (≈ 83.4 µM), the MIC [6] was 128 µg/mL (≈ 334 µM) and the MIC [7] was 64 µg/mL (≈ 167 µM). The MIC [8] was 32 µg/mL (≈ 83.4 µM), the MIC [9] was less than 0.25 µg/mL and the MIC [10] was 4 µg/mL (≈ 10.4 µM). It also gave an MIC [11] of 4 µg/mL (≈ 10.4 µM), an MIC [12] of 16 µg/mL (≈ 41.7 µM) and an MIC [13] of 1 µg/mL (≈ 2.61 µM). It also gave an MIC [14] of 64 µg/mL (≈ 167 µM), an MIC [15] of 64 µg/mL (≈ 167 µM) and an MIC [16] of 32 µg/mL (≈ 83.4 µM). The MIC [17] was 4 µg/mL (≈ 10.4 µM), the MIC [18] was 64 µg/mL (≈ 167 µM) and the MIC [19] was 64 µg/mL (≈ 167 µM). The MIC (Aeruginosa ATCC27853) was less than 0.25 µg/mL, the MIC [20] was 2 µg/mL (≈ 5.22 µM) and the MIC [21] was 64 µg/mL (≈ 167 µM). It also gave an MIC [22] of less than 0.25 µg/mL, an MIC [23] of 16 µg/mL (≈ 41.7 µM) and an MIC [25] of 64 µg/mL (≈ 167 µM). The MIC [26] was 1 µg/mL (≈ 2.61 µM), the MIC [27] was 64 µg/mL (≈ 167 µM) and the MIC [28] was 4 µg/mL (≈ 10.4 µM). It also gave an MIC [29] of 64 µg/mL (≈ 167 µM), an MIC [30] of 16 µg/mL (≈ 41.7 µM) and an MIC [31] of 64 µg/mL (≈ 167 µM). For the same molecule, the MIC [32] was 64 µg/mL (≈ 167 µM), the MIC [33] was 32 µg/mL (≈ 83.4 µM) and the MIC [34] was 16 µg/mL (≈ 41.7 µM). The MIC [35] was 32 µg/mL (≈ 83.4 µM), the MIC [36] was 8 µg/mL (≈ 20.9 µM) and the MIC [37] was 2 µg/mL (≈ 5.22 µM). For the same molecule, the MIC [38] was 64 µg/mL (≈ 167 µM), the MIC [39] was 16 µg/mL (≈ 41.7 µM) and the MIC [40] was 32 µg/mL (≈ 83.4 µM).
